Laboratory results reported in US20060069132A1, “Azolecarboxamide herbicides” (priority 2004, published 2006).
Where two headings read alike, the source gives them in different places.

Tests used:
rice = assay: Test C flooded paddy test; assay type: in vivo, Oryza sativa
Method in brief: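 Plants were grown to the 1- to 4-leaf stage (2–18 cm) and then treated postemergence, or grown to the 2-leaf stage for the flooded paddy test. They were held in a greenhouse for 12 to 14 days and then scored by eye against controls, where 0 is no effect and 100 is complete control.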

barnyardgrass = assay: Test A pre-/postemergence herbicide test; assay type: in vivo, Echinochloa crus-galli; conditions: for pest or weed control at 500 g/ha / pest or weed control at 2000 g/ha: Echinochloa crus-galli, 240 h
Method in brief: (§1)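 Plants are held in greenhouse about ten days after treatment, then compared with untreated controls and scored 0 (no effect) to 100 (complete control). Preemergence dosing is a directed soil spray on sown sandy loam; postemergence dosing is spray to runoff at 2–10 cm height.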

velvetleaf = assay: Test A pre-/postemergence herbicide test; assay type: in vivo, Abutilon theophrasti
Method in brief: as §1

morningglory = assay: Test A pre-/postemergence herbicide test; assay type: in vivo, Ipomoea spp.; conditions: for pest or weed control at 500 g/ha / pest or weed control at 2000 g/ha: Ipomoea, 240 h
Method in brief: as §1

[1] = system: smallflower umbrella sedge; assay: Test C flooded paddy test; assay type: in vivo, Cyperus difformis
ducksalad = assay: Test C flooded paddy test; assay type: in vivo, Heteranthera limosa
[2] = 62 g ai/ha, scale 0 to 100 (0 no effect, 100 complete control)
[3] = 125 g ai/ha, scale of 0 to 100, 0 is no effect, 100 is complete control
[4] = 250 g ai/ha, scale of 0 to 100, 0 is no effect, 100 is complete control
[5] = 500 g ai/ha, visual rating after 12 to 14 days, scale 0 to 100 (0 no effect, 100 complete control)
[6] = Postemergence, 500 g ai/ha, 0 to 100 scale, 0 no effect, 100 complete control
[7] = Postemergence, 2000 g ai/ha, 0 to 100 scale, 0 no effect, 100 complete control
[8] = Preemergence, 500 g ai/ha, visual rating, 0 to 100 scale (0 no effect, 100 complete control)
[9] = Preemergence, 2000 g ai/ha, visual rating, 0 to 100 scale (0 no effect, 100 complete control)

For `CCn1nc(C(C)(C)C)cc1C(=O)Nc1cccc(C(=O)NCC(F)(F)F)c1` [Compound 43, 3-(1,1-dimethylethyl)-1-ethyl-N-[3-[[(2,2,2-trifluoroethyl)amino]carbonyl]-phenyl]-1H-pyrazole-5-carboxamide], the plant injury at 62 g/ha (rice; Oryza sativa, 62 g ai/ha, scale 0 to 100 (0 no effect, 100 complete control), read-out: Rice plant response rating) was 0%, the plant injury at 125 g/ha (rice; Oryza sativa, 125 g ai/ha, scale of 0 to 100, 0 is no effect, 100 is complete control, read-out: Rice plant response rating) was 0% and the plant injury at 250 g/ha (rice; Oryza sativa, 250 g ai/ha, visual rating after 12 to 14 days, scale 0 to 100 (0 no effect, 100 complete control), read-out: Plant response rating, Rice) was 20%. The plant injury at 500 g/ha (rice; Oryza sativa, 500 g ai/ha, visual rating after 12 to 14 days, scale 0 to 100 (0 no effect, 100 complete control), read-out: Plant response rating, Rice) was 20%, the pest or weed control at 500 g/ha (barnyardgrass; post-emergence, Postemergence, 500 g ai/ha, 0 to 100 scale, 0 no effect, 100 complete control, read-out: Plant response rating, Barnyardgrass) was 90% and the pest or weed control at 2000 g/ha (barnyardgrass; post-emergence, Postemergence, 2000 g ai/ha, 0 to 100 scale, 0 no effect, 100 complete control, read-out: Plant response rating, Barnyardgrass) was 100%. For the same molecule, the pest or weed control at 500 g/ha (barnyardgrass; pre-emergence, Preemergence, 500 g ai/ha, visual rating, 0 to 100 scale (0 no effect, 100 complete control), read-out: Barnyardgrass plant response rating) was 60%, the pest or weed control at 2000 g/ha (barnyardgrass; pre-emergence, Preemergence, 2000 g ai/ha, 0 to 100 scale, 0 no effect, 100 complete control, read-out: Barnyardgrass plant response rating) was 90% and the pest or weed control at 2000 g/ha (velvetleaf; Abutilon theophrasti, post-emergence, 240 h, Postemergence, 2000 g ai/ha, 0 to 100 scale, 0 no effect, 100 complete control, read-out: Plant response rating, Velvetleaf) was 30%. It also gave a pest or weed control at 500 g/ha (velvetleaf; Abutilon theophrasti, pre-emergence, 240 h, Preemergence, 500 g ai/ha, visual rating, 0 to 100 scale (0 no effect, 100 complete control), read-out: Velvetleaf plant response rating) of 5%, a pest or weed control at 2000 g/ha (velvetleaf; Abutilon theophrasti, pre-emergence, 240 h, Preemergence, 2000 g ai/ha, 0 to 100 scale, 0 no effect, 100 complete control, read-out: Velvetleaf plant response rating) of 60% and a pest or weed control at 500 g/ha (morningglory; post-emergence, Postemergence, 500 g ai/ha, 0 to 100 scale, 0 no effect, 100 complete control, read-out: Plant response rating, Morningglory) of 20%. It also gave a pest or weed control at 2000 g/ha (morningglory; post-emergence, Postemergence, 2000 g ai/ha, 0 to 100 scale, 0 no effect, 100 complete control, read-out: Plant response rating, Morningglory) of 30%, a pest or weed control at 500 g/ha (morningglory; pre-emergence, Preemergence, 500 g ai/ha, visual rating, 0 to 100 scale (0 no effect, 100 complete control), read-out: Morningglory plant response rating) of 10% and a pest or weed control at 2000 g/ha (morningglory; pre-emergence, Preemergence, 2000 g ai/ha, 0 to 100 scale, 0 no effect, 100 complete control, read-out: Morningglory plant response rating) of 40%. For the same molecule, the pest or weed control at 62 g/ha ([1]; Cyperus difformis, 62 g ai/ha, scale 0 to 100 (0 no effect, 100 complete control), read-out: Sedge, Umbrella plant response rating) was 30%, the pest or weed control at 125 g/ha ([1]; Cyperus difformis, 125 g ai/ha, scale of 0 to 100, 0 is no effect, 100 is complete control, read-out: Sedge, Umbrella plant response rating) was 50% and the pest or weed control at 250 g/ha ([1]; Cyperus difformis, 250 g ai/ha, visual rating after 12 to 14 days, scale 0 to 100 (0 no effect, 100 complete control), read-out: Plant response rating, Sedge, Umbrella) was 70%. The pest or weed control at 500 g/ha ([1]; Cyperus difformis, 500 g ai/ha, visual rating after 12 to 14 days, scale 0 to 100 (0 no effect, 100 complete control), read-out: Plant response rating, Sedge, Umbrella) was 80%, the pest or weed control at 62 g/ha (ducksalad; Heteranthera limosa, 62 g ai/ha, scale 0 to 100 (0 no effect, 100 complete control), read-out: Ducksalad plant response rating) was 0% and the pest or weed control at 125 g/ha (ducksalad; Heteranthera limosa, 125 g ai/ha, scale of 0 to 100, 0 is no effect, 100 is complete control, read-out: Ducksalad plant response rating) was 0%. It also gave a pest or weed control at 250 g/ha (ducksalad; Heteranthera limosa, 250 g ai/ha, visual rating after 12 to 14 days, scale 0 to 100 (0 no effect, 100 complete control), read-out: Plant response rating, Ducksalad) of 60% and a pest or weed control at 500 g/ha (ducksalad; Heteranthera limosa, 500 g ai/ha, visual rating after 12 to 14 days, scale 0 to 100 (0 no effect, 100 complete control), read-out: Plant response rating, Ducksalad) of 70%.

`C=CCn1nc(C(C)(C)C)cc1C(=O)Nc1cccc(C(C)=NO)c1` [Compound 117] was tested, and the “Rice plant response rating” value (rice; [2]) was 0, the “Rice plant response rating” value (rice; [3]) was 15 and the “Rice plant response rating” value (rice; [4]) was 45. For the same molecule, the “Plant response rating, Rice” value (rice; [5]) was 65, the “Barnyardgrass plant response rating” value (barnyardgrass; [6]) was 45 and the “Plant response rating, Barnyardgrass” value (barnyardgrass; [7]) was 75. The “Barnyardgrass plant response rating” value (barnyardgrass; [8]) was 30, the “Barnyardgrass plant response rating” value (barnyardgrass; [9]) was 70 and the “Velvetleaf plant response rating” value (velvetleaf; [6]) was 50. For the same molecule, the “Plant response rating, Velvetleaf” value (velvetleaf; [7]) was 65, the “Velvetleaf plant response rating” value (velvetleaf; [8]) was 50 and the “Velvetleaf plant response rating” value (velvetleaf; [9]) was 65. The “Morningglory plant response rating” value (morningglory; [6]) was 20, the “Plant response rating, Morningglory” value (morningglory; [7]) was 70 and the “Morningglory plant response rating” value (morningglory; [8]) was 45. The “Morningglory plant response rating” value (morningglory; [9]) was 75, the “Sedge, Umbrella plant response rating” value [1, 2] was 40 and the “Sedge, Umbrella plant response rating” value [1, 3] was 55. For the same molecule, the “Sedge, Umbrella plant response rating” value [1, 4] was 75, the “Plant response rating, Sedge, Umbrella” value [1, 5] was 80 and the “Ducksalad plant response rating” value (ducksalad; [2]) was 0. For the same molecule, the “Ducksalad plant response rating” value (ducksalad; [3]) was 0, the “Ducksalad plant response rating” value (ducksalad; [4]) was 0 and the “Plant response rating, Ducksalad” value (ducksalad; [5]) was 60.
